Data: patent publication US20120121540A1 (priority 2007, published 2012)

Assay: HCV replicon assay (luciferase reporter, ET cell line)
Type: cell-based
Conditions: Hepatitis C virus, HCV replicon luciferase activity in ET cells
How it was run: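 EC50 and, via WST-1 cytotoxicity, TC50 were fitted with a Hill-coefficient equation to % inhibition across 10 two-fold dilutions. Compounds at 0.1 nM-[…] with 0.5% DMSO were applied 24 h post-seeding to replicon-bearing ET cells (luc-ubi-neo/NS3-5B, adaptive mutations). Firefly luciferase signal was measured after 48-72 h.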

SMILES | inhibition at 10 µM
O=C(NCc1cccs1)c1nc2c(C(F)(F)F)cc(-c3cn[nH]c3)cn2c1Br [Compound 376, 3-Bromo-6-(1H-pyrazol-4-yl)-8-trifluoromethyl-imidazo[1,2-a]pyridine-2-carboxylic Acid(thiophen-2-ylmethyl)-amide] | 98.8%
O=C(c1cn2cc(-c3cn[nH]c3)cc(C(F)(F)F)c2n1)N1CCC(c2ccccc2F)C1 (stereo not drawn) [Compound 377, [3-(2-Fluoro-phenyl)-pyrrolidin-1-yl]-[6-(1H-pyrazol-4-yl)-8-trifluoromethyl-imidazo[1,2-a]pyridin-2-yl]-methanone] | 94.2%
O=C(c1cn2cc(-c3cn[nH]c3)cc(C(F)(F)F)c2n1)N1CCC(c2cccc(F)c2)C1 (stereo not drawn) [Compound 378, [3-(3-Fluoro-phenyl)-pyrrolidin-1-yl]-[6-(1H-pyrazol-4-yl)-8-trifluoromethyl-imidazo[1,2-a]pyridin-2-yl]-methanone] | 86.4%
N#Cc1cc(-c2cn[nH]c2)cn2c(Cl)c(C(=O)NCc3cccs3)nc12 [Compound 379, 3-Chloro-8-cyano-6-(1H-pyrazol-4-yl)-imidazo[1,2-a]pyridine-2-carboxylic Acid (thiophen-2-ylmethyl)-amide] | 80.8%
O=C(c1nc2c(C(F)(F)F)cc(-c3ccco3)cn2c1Cl)N1CCc2ccccc21 [Compound 380, (3-Chloro-6-furan-2-yl-8-trifluoromethyl-imidazo[1,2-a]pyridin-2-yl)-(2,3-dihydro-indol-1-yl)-methanone] | 20.2%
O=C(c1nc2c(C(F)(F)F)cc(-c3ccoc3)cn2c1Cl)N1CCC(N2CCOCC2)C1 (stereo not drawn) [Compound 381, (3-Chloro-6-furan-3-yl-8-trifluoromethyl-imidazo[1,2-a]pyridin-2-yl)-(3-morpholin-4-yl-pyrrolidin-1-yl)-methanone] | 37.9%
[H]/N=C(/NCc1cccs1)c1nc2c(C(F)(F)F)cc(-c3ccoc3)cn2c1Cl [Compound 382, 3-Chloro-6-furan-3-yl-N-thiophen-2-ylmethyl-8-trifluoromethyl-imidazo[1,2-a]pyridine-2-carboxamidine] | 65.4%
O=C(Cc1cccs1)NCc1cn2cc(-c3ccoc3)cc(C(F)(F)F)c2n1 [Compound 388, N-(6-Furan-3-yl-8-trifluoromethyl-imidazo[1,2-a]pyridin-2-ylmethyl)-2-thiophen-2-yl-acetamide] | 97.2%
O=C(Cc1ccccc1)NCc1nc2c(C(F)(F)F)cc(-c3ccoc3)cn2c1Cl [Compound 389, N-(3-Chloro-6-furan-3-yl-8-trifluoromethyl-imidazo[1,2-a]pyridin-2-ylmethyl)-2-phenyl-acetamide] | 45.3%
O=C(Cc1ccccc1)NCc1cn2cc(-c3ccoc3)cc(C(F)(F)F)c2n1 [Compound 390, N-(6-Furan-3-yl-8-trifluoromethyl-imidazo[1,2-a]pyridin-2-ylmethyl)-2-phenyl-acetamide] | 95.8%
O=C(NCc1ccccc1)NCc1cn2cc(-c3ccoc3)cc(C(F)(F)F)c2n1 [Compound 391, 1-Benzyl-3-(6-furan-3-yl-8-trifluoromethyl-imidazo[1,2-a]pyridin-2-ylmethyl)-urea] | 99.9%
O=C(NCc1cn2cc(-c3ccoc3)cc(C(F)(F)F)c2n1)OCc1ccccc1 [Compound 393, (6-Furan-3-yl-8-trifluoromethyl-imidazo[1,2-a]pyridine-2-ylmethyl)-carbamic Acid Benzyl Ester] | 0.5%
O=S(=O)(NCc1cn2cc(-c3ccoc3)cc(C(F)(F)F)c2n1)c1ccccc1 [Compound 395] | 90.4%
O=S(=O)(Cc1ccccc1)NCc1cn2cc(-c3ccoc3)cc(C(F)(F)F)c2n1 [Compound 396] | 94.2%
O=C(NCc1ccc(F)cc1)NCc1cn2cc(-c3ccoc3)cc(C(F)(F)F)c2n1 [Compound 397, 1-(4-Fluoro-benzyl)-3-(6-furan-3-yl-8-trifluoromethyl-imidazo[1,2-a]pyridine-2-ylmethyl)-urea] | 21.9%
O=C(NCc1cccc(F)c1)NCc1cn2cc(-c3ccoc3)cc(C(F)(F)F)c2n1 [Compound 398, 1-(3-Fluoro-benzyl)-3-(6-furan-3-yl-8-trifluoromethyl-imidazo[1,2-a]pyridine-2-ylmethyl)-urea] | 86.9%
O=C(NCc1cn2cc(-c3ccoc3)cc(C(F)(F)F)c2n1)NCc1ccccc1F [Compound 399, 1-(2-Fluoro-benzyl)-3-(6-furan-3-yl-8-trifluoromethyl-imidazo[1,2-a]pyridine-2-ylmethyl)-urea] | 37.7%
O=C(NCc1ccccc1F)c1nc2c(C(F)(F)F)cc(-c3ccoc3)cn2c1Cl [Compound 402, 3-Chloro-6-furan-3-yl-8-trifluoromethyl-imidazo[1,2-a]pyridine-2-carboxylic Acid-2-fluoro-benzylamide] | 94.9%

SMILES | inhibition at 10 µM
O=C(NCc1cccc(F)c1)c1nc2c(C(F)(F)F)cc(-c3ccoc3)cn2c1Cl [Compound 403] | 88.9%
O=C(NCc1ccc(F)cc1)c1nc2c(C(F)(F)F)cc(-c3ccoc3)cn2c1Cl [Compound 404] | 83.9%
O=C(NCCc1ccccc1F)c1nc2c(C(F)(F)F)cc(-c3ccoc3)cn2c1Cl [Compound 405, 3-Chloro-6-furan-3-yl-8-trifluoromethyl-imidazo[1,2-a]-pyridine-2-carboxylic acid [2-(2-fluoro-phenyl)-ethyl]-amide] | 90%
O=C(NCCc1cccc(F)c1)c1nc2c(C(F)(F)F)cc(-c3ccoc3)cn2c1Cl [Compound 406, 3-Chloro-6-furan-3-yl-8-trifluoromethyl-imidazo[1,2-a]-pyridine-2-carboxylic acid [2-(3-fluoro-phenyl)-ethyl]-amide] | 82.5%
O=C(NCCc1ccc(F)cc1)c1nc2c(C(F)(F)F)cc(-c3ccoc3)cn2c1Cl [Compound 407, 3-Chloro-6-furan-3-yl-8-trifluoromethyl-imidazo[1,2-a]-pyridine-2-carboxylic acid [2-(4-fluoro-phenyl)-ethyl]-amide] | 88%
O=C(CNC(=O)c1nc2c(C(F)(F)F)cc(-c3ccoc3)cn2c1Cl)c1cccc(F)c1 [Compound 409, 3-Chloro-6-furan-3-yl-8-trifluoromethyl-imidazo[1,2-a]pyridine-2-carboxylic Acid[2-(3-fluoro-phenyl)-2-oxo-ethyl]-amide] | 46.6%
O=C(NC(c1ccccc1)c1ccccn1)c1nc2c(C(F)(F)F)cc(-c3ccoc3)cn2c1Cl (stereo not drawn) [Compound 410, 3-Chloro-6-furan-3-yl-8-trifluoromethyl-imidazo[1,2-a]pyridine-2-carboxylic Acid (phenyl-pyridin-2-yl-methyl)-amide] | 99.1%
C[C@@H](NC(=O)c1nc2c(C(F)(F)F)cc(-c3ccoc3)cn2c1Cl)c1ccccc1 [Compound 411, 3-Chloro-6-furan-3-yl-8-trifluoromethyl-imidazo[1,2-a]pyridine-2-carboxylic Acid (1-phenyl-ethyl)-amide] | 74.8%
C[C@H](NC(=O)c1nc2c(C(F)(F)F)cc(-c3ccoc3)cn2c1Cl)c1ccccc1 [Compound 412, 3-Chloro-6-furan-3-yl-8-trifluoromethyl-imidazo[1,2-a]pyridine-2-carboxylic Acid (1-phenyl-ethyl)-amide] | 85%
C[C@H](CNC(=O)c1nc2c(C(F)(F)F)cc(-c3ccoc3)cn2c1Cl)c1ccccc1 [Compound 414, 3-Chloro-6-furan-3-yl-8-trifluoromethyl-imidazo[1,2-a]pyridine-2-carboxylic Acid (2-phenyl-propyl)-amide] | 76.3%
O=C(NCc1nccs1)c1nc2c(C(F)(F)F)cc(-c3ccoc3)cn2c1Cl [Compound 415, 3-Chloro-3-furan-3-yl-8-trifluomethyl-imidazo[1,2-a]-pyridine-2-carboxylic Acid (thiazol-2-ylmethyl)-amide] | 92.6%
N#CC1CCN(C(=O)c2nc3c(C(F)(F)F)cc(-c4ccoc4)cn3c2Cl)C1 (stereo not drawn) [Compound 416, 1-(3-Chloro-6-furan-3-yl-8-trifluoromethyl-imidazo[1,2-a]pyridine-2-carbonyl)-pyrrolidine-3-carbonitrile] | 58%
O=C(c1nc2c(C(F)(F)F)cc(-c3ccoc3)cn2c1Cl)N1CCC(c2ncon2)C1 (stereo not drawn) [Compound 417, (3-Chloro-6-furan-3-yl-8-trifluoromethyl-imidazo[1,2-a]pyridine-2-yl)-(3-[1,2,4]oxadiazol-3-yl-pyrrolidin-1-yl)-methanone] | 96.5%
O=C(c1nc2c(C(F)(F)F)cc(-c3ccoc3)cn2c1Cl)N1CCC(c2ccc(F)c(F)c2)C1 (stereo not drawn) [Compound 420, (3-Chloro-6-furan-3-yl-8-trifluoromethyl-imidazo[1,2-a]pyridine-2-yl)-[3-(3,4-difluoro-phenyl)-pyrrolidin-1-yl]-methanone] | 93.6%
O=C(c1nc2c(C(F)(F)F)cc(-c3ccoc3)cn2c1Cl)N1CC=C(c2cccs2)C1 [Compound 422, (3-Chloro-6-furan-3-yl-8-trifluoromethyl-imidazo[1,2-a]pyridin-2-yl)-(3-thiophen-2-yl-2,5-dihydro-pyrrol-1-yl)-methanone] | 99.8%
O=C(c1nc2c(C(F)(F)F)cc(-c3ccoc3)cn2c1Cl)N1CCC(c2cccs2)C1 (stereo not drawn) [Compound 423, (3-Chloro-6-furan-3-yl-8-trifluoromethyl-imidazo[1,2-a]pyridin-2-yl)-(3-thiophen-2-yl-pyrrolidin-1-yl)-methanone] | 99.8%
O=C(c1nc2c(C(F)(F)F)cc(-c3ccoc3)cn2c1Cl)N1CC=C(c2ccccc2F)C1 [Compound 424, (3-Chloro-6-furan-3-yl-8-trifluoromethyl-imidazo[1,2-a]pyridin-2-yl)-[3-(2-fluoro-phenyl)-2,5-dihydro-pyrrol-1-yl]-methanone] | 99.7%
O=C(c1nc2c(C(F)(F)F)cc(-c3ccoc3)cn2c1Cl)N1CC=C(c2ccsc2)C1 [Compound 425, (3-Chloro-6-furan-3-yl-8-trifluoromethyl-imidazo[1,2-a]pyridin-2-yl)-(3-thiophen-3-yl-2,5-dihydro-pyrrol-1-yl)-methanone] | 99.3%
